Measured values as given in ChEMBL document CHEMBL4219148, “Discovery of a highly potent orally bioavailable imidazo-[1, 2-a]pyrazine Aurora inhibitor” (Bioorg Med Chem Lett, 2018).
pIC50: −log10 of the molar value.

Columns and labels:
[1] = biological target: Glycogen synthase kinase-3 beta (Homo sapiens, UniProt P49841); experiment: Inhibition of GSK3b (unknown origin)
[2] = biological target: Protein kinase C alpha type (Homo sapiens, UniProt P17252); experiment: Inhibition of PKCA (unknown origin)
[3] = biological target: Mitogen-activated protein kinase 1 (Homo sapiens, UniProt P28482); experiment: Inhibition of ERK2 (unknown origin)
Sequence of Mitogen-activated protein kinase 1 (P28482 whole entry): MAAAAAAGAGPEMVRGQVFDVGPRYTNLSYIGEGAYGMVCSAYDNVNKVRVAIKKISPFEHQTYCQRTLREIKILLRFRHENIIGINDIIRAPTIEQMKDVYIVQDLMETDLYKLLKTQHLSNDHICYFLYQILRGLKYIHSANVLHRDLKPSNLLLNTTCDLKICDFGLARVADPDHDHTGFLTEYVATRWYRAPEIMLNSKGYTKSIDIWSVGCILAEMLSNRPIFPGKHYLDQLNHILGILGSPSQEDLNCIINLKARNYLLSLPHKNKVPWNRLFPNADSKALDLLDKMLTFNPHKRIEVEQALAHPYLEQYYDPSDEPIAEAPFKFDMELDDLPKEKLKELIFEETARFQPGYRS

[4] = biological target: Rho-associated protein kinase 2 (Homo sapiens, UniProt O75116); experiment: Inhibition of ROCK2 (unknown origin)
Sequence of Rho-associated protein kinase 2 (O75116 whole entry): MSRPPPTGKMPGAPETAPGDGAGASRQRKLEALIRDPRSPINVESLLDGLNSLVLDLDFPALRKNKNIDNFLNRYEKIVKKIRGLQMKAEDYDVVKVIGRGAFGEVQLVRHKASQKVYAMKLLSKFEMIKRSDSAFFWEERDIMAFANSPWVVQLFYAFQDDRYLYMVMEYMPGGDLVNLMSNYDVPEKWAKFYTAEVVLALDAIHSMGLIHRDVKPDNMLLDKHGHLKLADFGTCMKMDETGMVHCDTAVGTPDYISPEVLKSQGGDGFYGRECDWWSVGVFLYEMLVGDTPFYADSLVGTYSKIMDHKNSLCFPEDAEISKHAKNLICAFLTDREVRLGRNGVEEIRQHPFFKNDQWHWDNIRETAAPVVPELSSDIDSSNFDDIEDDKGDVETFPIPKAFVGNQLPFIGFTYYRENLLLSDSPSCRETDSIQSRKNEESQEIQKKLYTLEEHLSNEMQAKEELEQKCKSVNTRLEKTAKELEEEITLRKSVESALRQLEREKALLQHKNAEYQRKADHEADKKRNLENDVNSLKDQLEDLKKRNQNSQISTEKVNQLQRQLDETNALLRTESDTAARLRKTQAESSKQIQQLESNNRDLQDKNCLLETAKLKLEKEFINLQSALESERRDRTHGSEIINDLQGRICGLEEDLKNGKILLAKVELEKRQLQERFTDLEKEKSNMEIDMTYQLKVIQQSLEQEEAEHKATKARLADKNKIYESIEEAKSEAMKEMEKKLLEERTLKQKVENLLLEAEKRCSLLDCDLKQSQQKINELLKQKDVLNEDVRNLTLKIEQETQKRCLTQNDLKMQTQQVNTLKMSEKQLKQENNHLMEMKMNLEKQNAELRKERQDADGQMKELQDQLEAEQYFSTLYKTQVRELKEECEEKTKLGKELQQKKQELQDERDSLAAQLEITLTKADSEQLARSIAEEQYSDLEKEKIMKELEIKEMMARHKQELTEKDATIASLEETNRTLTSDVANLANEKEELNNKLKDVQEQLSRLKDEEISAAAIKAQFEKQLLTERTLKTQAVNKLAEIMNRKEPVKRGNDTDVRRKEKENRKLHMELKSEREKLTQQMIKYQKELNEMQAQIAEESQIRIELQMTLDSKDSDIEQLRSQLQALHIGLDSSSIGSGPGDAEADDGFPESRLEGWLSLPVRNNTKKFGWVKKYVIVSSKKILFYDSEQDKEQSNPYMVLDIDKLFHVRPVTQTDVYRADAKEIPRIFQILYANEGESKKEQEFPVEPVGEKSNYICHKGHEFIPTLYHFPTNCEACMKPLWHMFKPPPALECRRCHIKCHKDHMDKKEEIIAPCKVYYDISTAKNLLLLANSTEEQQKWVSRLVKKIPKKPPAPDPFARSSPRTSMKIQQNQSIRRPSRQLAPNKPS

[5] = biological target: Tyrosine-protein kinase Lck (Homo sapiens, UniProt P06239); experiment: Inhibition of LCK (unknown origin)
Sequence of Tyrosine-protein kinase Lck (P06239 whole entry): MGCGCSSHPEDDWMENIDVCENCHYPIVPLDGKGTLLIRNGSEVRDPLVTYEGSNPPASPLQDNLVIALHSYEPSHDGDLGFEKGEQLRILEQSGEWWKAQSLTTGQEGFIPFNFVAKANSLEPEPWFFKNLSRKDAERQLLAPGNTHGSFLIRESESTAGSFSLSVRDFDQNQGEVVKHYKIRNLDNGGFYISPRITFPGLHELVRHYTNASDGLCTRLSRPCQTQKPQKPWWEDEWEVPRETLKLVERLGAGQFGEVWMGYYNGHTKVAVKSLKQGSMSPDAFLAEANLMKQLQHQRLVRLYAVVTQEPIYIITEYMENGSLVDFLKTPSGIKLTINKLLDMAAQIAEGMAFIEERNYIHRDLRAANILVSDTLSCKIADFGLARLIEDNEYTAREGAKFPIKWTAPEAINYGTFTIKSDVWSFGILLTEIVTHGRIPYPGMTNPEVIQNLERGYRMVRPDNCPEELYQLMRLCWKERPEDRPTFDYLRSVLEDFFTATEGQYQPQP

[6] = biological target: T1, Serine/threonine-protein kinase Chk1 (Homo sapiens, UniProt O14757); experiment: Inhibition of CHK1 (unknown origin)
T1 sequence (O14757 whole entry): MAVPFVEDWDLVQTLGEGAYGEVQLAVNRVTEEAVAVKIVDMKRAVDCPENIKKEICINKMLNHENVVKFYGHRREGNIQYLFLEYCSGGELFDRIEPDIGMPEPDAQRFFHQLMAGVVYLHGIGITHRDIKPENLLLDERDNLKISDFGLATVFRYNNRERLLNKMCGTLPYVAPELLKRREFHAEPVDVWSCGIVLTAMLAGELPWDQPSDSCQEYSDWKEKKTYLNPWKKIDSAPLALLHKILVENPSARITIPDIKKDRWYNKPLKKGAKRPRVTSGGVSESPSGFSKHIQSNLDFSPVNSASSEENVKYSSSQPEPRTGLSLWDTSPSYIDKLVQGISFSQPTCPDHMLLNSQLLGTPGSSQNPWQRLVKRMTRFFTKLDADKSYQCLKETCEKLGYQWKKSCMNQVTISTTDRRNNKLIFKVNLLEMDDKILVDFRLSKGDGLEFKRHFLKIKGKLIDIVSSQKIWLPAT

Ephrin type-B receptor 4 = biological target: T2, Ephrin type-B receptor 4 (Homo sapiens, UniProt P54760); experiment: Inhibition of EPHB4 (unknown origin)
T2 sequence (P54760 whole entry): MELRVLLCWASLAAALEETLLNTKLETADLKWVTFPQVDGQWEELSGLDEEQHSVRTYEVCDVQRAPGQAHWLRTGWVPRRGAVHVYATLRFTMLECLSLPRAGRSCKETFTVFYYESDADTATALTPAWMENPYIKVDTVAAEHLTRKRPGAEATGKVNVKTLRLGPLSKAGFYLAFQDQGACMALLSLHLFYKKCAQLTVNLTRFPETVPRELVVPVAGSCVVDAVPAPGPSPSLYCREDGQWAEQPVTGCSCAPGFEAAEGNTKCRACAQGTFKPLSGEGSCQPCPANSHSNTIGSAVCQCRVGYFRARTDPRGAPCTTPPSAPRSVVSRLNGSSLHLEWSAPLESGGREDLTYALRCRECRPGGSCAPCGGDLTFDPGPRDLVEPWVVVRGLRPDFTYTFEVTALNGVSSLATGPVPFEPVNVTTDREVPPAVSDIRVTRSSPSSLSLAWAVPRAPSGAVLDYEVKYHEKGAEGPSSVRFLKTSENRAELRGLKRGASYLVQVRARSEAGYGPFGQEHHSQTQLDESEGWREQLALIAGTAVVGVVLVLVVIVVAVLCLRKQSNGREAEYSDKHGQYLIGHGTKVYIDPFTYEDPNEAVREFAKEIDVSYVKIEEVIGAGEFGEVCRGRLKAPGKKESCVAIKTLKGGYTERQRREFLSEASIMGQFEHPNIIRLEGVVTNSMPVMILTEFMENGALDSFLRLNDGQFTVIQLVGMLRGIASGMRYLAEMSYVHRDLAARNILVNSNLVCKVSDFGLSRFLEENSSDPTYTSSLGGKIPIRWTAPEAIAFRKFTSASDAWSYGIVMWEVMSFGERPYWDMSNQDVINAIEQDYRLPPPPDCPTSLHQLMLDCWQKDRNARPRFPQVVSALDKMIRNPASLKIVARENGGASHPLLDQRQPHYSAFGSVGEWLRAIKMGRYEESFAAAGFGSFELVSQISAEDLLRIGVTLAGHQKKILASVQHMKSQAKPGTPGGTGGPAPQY

[7] = biological target: T3, Inhibitor of nuclear factor kappa-B kinase subunit beta (Homo sapiens, UniProt O14920); experiment: Inhibition of IKKB (unknown origin)
T3 sequence (O14920 whole entry): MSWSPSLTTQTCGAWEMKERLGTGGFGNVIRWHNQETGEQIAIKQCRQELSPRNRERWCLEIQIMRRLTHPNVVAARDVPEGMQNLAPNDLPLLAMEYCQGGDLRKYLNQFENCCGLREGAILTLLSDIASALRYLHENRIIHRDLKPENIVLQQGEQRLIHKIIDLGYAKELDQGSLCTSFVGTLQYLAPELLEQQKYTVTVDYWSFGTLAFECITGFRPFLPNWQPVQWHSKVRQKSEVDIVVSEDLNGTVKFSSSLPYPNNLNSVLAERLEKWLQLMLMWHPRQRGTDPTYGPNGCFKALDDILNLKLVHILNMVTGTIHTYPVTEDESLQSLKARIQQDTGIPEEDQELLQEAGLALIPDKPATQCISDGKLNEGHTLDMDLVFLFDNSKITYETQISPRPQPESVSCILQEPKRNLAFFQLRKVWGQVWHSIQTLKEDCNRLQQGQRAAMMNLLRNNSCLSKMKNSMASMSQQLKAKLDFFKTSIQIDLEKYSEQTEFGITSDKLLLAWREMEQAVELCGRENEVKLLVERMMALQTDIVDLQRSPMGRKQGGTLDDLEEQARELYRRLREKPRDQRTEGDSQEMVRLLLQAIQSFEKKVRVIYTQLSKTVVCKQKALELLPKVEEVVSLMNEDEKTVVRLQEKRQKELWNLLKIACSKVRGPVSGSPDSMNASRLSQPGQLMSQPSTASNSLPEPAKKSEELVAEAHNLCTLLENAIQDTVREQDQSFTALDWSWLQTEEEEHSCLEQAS

[8] = biological target: T4, Serine/threonine-protein kinase 3 (Homo sapiens, UniProt Q13188); experiment: Inhibition of MST2 (unknown origin)
T4 sequence (Q13188 whole entry): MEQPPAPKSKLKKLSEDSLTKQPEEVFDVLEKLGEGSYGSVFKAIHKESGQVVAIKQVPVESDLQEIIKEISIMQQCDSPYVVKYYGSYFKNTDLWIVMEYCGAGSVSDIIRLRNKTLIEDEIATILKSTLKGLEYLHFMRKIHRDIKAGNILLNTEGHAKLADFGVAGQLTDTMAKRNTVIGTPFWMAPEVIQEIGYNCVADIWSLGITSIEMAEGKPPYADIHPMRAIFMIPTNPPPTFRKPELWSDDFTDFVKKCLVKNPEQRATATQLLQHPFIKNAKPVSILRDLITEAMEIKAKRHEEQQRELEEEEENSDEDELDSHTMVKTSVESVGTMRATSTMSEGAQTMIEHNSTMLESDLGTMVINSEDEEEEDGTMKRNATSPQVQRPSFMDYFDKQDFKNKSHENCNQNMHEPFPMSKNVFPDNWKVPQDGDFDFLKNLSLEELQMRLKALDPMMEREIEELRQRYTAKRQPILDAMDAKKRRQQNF

[9] = biological target: RAC-alpha serine/threonine-protein kinase (Homo sapiens, UniProt P31749); experiment: Inhibition of AKT1 (unknown origin)
Sequence of RAC-alpha serine/threonine-protein kinase (P31749 whole entry): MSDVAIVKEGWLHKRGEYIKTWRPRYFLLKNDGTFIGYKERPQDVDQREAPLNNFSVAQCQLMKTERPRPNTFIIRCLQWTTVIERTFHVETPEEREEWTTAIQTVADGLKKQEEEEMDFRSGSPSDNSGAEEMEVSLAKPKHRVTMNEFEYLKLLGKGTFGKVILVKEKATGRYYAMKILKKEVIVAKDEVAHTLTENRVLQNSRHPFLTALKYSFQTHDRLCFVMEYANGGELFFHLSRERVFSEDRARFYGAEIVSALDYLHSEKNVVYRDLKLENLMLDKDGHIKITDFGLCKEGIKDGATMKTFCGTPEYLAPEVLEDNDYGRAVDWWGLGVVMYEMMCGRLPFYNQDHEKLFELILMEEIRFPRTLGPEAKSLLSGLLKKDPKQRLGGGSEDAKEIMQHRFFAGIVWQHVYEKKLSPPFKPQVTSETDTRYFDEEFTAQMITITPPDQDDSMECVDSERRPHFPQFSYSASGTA

Sequence of Glycogen synthase kinase-3 beta (P49841 whole entry): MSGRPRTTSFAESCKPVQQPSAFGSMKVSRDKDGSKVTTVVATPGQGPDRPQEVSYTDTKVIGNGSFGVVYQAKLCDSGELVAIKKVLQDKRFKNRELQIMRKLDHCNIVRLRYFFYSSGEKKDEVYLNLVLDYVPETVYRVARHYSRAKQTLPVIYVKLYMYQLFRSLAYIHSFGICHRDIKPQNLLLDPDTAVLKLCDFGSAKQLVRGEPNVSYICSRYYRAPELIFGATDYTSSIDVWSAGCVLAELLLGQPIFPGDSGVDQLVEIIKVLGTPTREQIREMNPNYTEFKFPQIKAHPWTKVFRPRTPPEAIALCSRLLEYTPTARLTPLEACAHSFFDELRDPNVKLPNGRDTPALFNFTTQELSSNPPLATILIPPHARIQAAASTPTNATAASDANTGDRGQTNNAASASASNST

Row | pIC50 [1] | pIC50 [2] | pIC50 [3] | pIC50 [4] | pIC50 [5] | pIC50 [6] | pIC50 (Ephrin type-B receptor 4) | pIC50 [7] | pIC50 [8] | pIC50 [9] | Compound
1 | < 6.30 | < 6.30 | < 6.30 | < 6.30 | 6.57 | 6.44 | 6.41 | < 6.30 | < 6.30 | < 6.30 | Cc1cn2c(-c3cn[nH]c3)cnc2c(Nc2cc(Cc3ccccn3)ns2)n1
2 | < 6.30 | < 6.30 | < 6.30 | < 6.30 | > 9.00 | 7.89 | 7.00 | < 6.30 | < 6.30 | < 6.30 | CCN(CCO)Cc1cc(Nc2nc(C)cn3c(-c4cn[nH]c4)cnc23)sn1

Row | Compound | pIC50 [1] | pIC50 [2] | pIC50 [3] | pIC50 [4] | pIC50 [5] | pIC50 [6] | pIC50 (Ephrin type-B receptor 4) | pIC50 [7] | pIC50 [8] | pIC50 [9]
3 | Cc1cn2c(-c3cn[nH]c3)cnc2c(Nc2cc(C(NC(C)(C)C)c3ccccn3)ns2)n1 (single isomer, unassigned; (+)) | < 6.00 | < 6.00 | < 6.00 | < 6.00 | 7.21 | 8.15 | 7.42 | < 6.00 | < 6.00 | < 6.00
